Assay: Evaluation of storage stability: purity of stored solid DOTAGA-DBCO by HPLC area percentage
Format: physicochemical
Settings: for long-term storage stability (in words): refrigerating or freezing conditions, after 6 months storage
Experimental: Thereafter, the brown vial containing DOTAGA-DBCO was placed under each of the conditions: room temperature (Example 1: 21 to 25° C.); high temperature (Example 2: 40° C.); refrigerating (Example 3: 5° C.); and freezing (Example 4: -20° C.), and stored for a predetermined period.
Thereafter, the colorless transparent glass vial containing DOTAGA-DBCO was placed under the condition of room temperature (Example 5: 19 to 23° C.) and stored for a predetermined period.
Subsequently, DOTAGA-DBCO obtained by drying in the same manner as in Examples 1 to 4 was put in a brown vial, and the brown vial was placed under each of the conditions: room temperature (Comparative Example 1: 21 to 25° C.); and high temperature (Comparative Example 2: 40° C.), and stored for a predetermined period.
For DOTAGA-DBCOs in each of Examples and Comparative Examples, the purity was measured by the following measurement method at each time point: at the start of storage, after 7 days storage, after 1 month storage, after 3 months storage, and after 6 months storage. The smaller deterioration in purity with respect to the purity at the start of storage, the more excellent the storage stability.
1.0 mg of the objective compound was precisely weighed. For Examples 1 and 2 and Comparative Examples 1 and 2, a mixture of 10 mmol/L ammonium formate solution (pH 3.0)/acetonitrile for liquid chromatography (95:5) was added to make an exactly 10 mL sample solution. For Examples 3 and 4, a mixture of 10 mmol/L ammonium formate solution (pH 3.0)/methanol for liquid chromatography (95:5) was added to make an exactly 10 mL sample solution. For Example 5, methanol for liquid chromatography was added to make an exactly 10 mL sample solution.
For 10 μL of each of these sample solutions, high performance liquid chromatography measurement was conducted under the following conditions. The peak area of the sample solution was measured with automatic integration method, and the amount of these compounds was determined through area percentage method. Each sample solution was prepared one time and measured 3 times. The arithmetic average value of the three measurement results was defined as purity (%). Note that, at the start of storage, each sample solution was prepared and measured one time, respectively.
• Detector (1): ultraviolet absorptiometer (measurement wavelength: 290 nm, 308 nm) • Detector (2): ACQ-QDa (Positive scan: cone voltage 15 V, capillary voltage 0.8 V; Negative scan: cone voltage 15 V, capillary voltage 0.8 V, scanning range: m/z 50 to 1200) • Column: a stainless steel tube having an inner diameter of 4.6 mm and a length of 10 cm, packed with 3.5 μm octadecylsilylated silica gel for liquid chromatography (XBridge C18) • Column temperature: maintained at a constant temperature of about 25° C.
• Mobile phase: (Mobile phase A) 10 mmol/L ammonium formate solution (pH 3.0) and (Mobile phase B) acetonitrile were used for liquid feeding while controlling the concentration gradient (vol %) in the order of the following (i) to (v). The flow rate of each mobile phase was 1 mL/min.

[1] = storage conditions: room temperature
[2] = stored at 5° C. (refrigerating)

Question: Which “Purity (%) of compound at storage start” value [1] does the source give for `O=C(O)CN1CCN(CC(=O)O)CCN(C(CCC(=O)NCCC(=O)N2Cc3ccccc3C#Cc3ccccc32)C(=O)O)CCN(CC(=O)O)CC1` (stereo not shown) [Comparative Example 1, DOTAGA-DBCO] here?
Answer: The value was 96.4%.

Question: What about the “Purity (%) of compound after 1 month” value (stored at room temperature) of the same compound?
Answer: Its value is 90.9%.

Question: What about the “Purity (%) of compound after 7 days” value (stored at room temperature) of the same compound?
Answer: The value was 95.5%.

Question: Which “Purity (%) of compound at storage start” value (storage conditions: 40° C.) does the source give for `O=C(O)CN1CCN(CC(=O)O)CCN(C(CCC(=O)NCCC(=O)N2Cc3ccccc3C#Cc3ccccc32)C(=O)O)CCN(CC(=O)O)CC1` (stereo not shown) [Comparative Example 2, DOTAGA-DBCO] here?
Answer: Its value is 96.4%.

Question: And the “Purity (%) of compound after 1 month” value (stored at 40° C.)?
Answer: The value was 52.2%.

Question: What about the “Purity (%) of compound after 7 days” value (stored at 40° C.) of the same compound?
Answer: The value was 86.1%.

Question: Which “Purity (%) of compound at storage start” value [1] does the source give for `O=C(O)CN1CCN(CC(=O)O)CCN(C(CCC(=O)NCCC(=O)N2Cc3ccccc3C#Cc3ccccc32)C(=O)O)CCN(CC(=O)O)CC1` (stereo not shown) [Example 1, DOTAGA-DBCO] here?
Answer: Its value is 97.6%.

Question: And the “Purity (%) of compound after 1 month” value (stored at room temperature)?
Answer: The value was 96.9%.

Question: And the “Purity (%) of compound after 3 months” value (stored at room temperature)?
Answer: Its value is 95.7%.

Question: And the “Purity (%) of compound after 6 months” value (stored at room temperature)?
Answer: The value was 93.6%.

Question: And the “Purity (%) of compound after 7 days” value (stored at room temperature)?
Answer: Its value is 97.1%.

Question: With `O=C(O)CN1CCN(CC(=O)O)CCN(C(CCC(=O)NCCC(=O)N2Cc3ccccc3C#Cc3ccccc32)C(=O)O)CCN(CC(=O)O)CC1` (stereo not shown) [Example 2, DOTAGA-DBCO] as the compound, how does the “Purity (%) of compound at storage start” value (storage conditions: 40° C.) read?
Answer: Its value is 97.6%.

Question: And the “Purity (%) of compound after 1 month” value (stored at 40° C.)?
Answer: The value was 96.7%.

Question: What about the “Purity (%) of compound after 3 months” value (stored at 40° C.) of the same compound?
Answer: Its value is 93.9%.

Question: And the “Purity (%) of compound after 6 months” value (stored at 40° C.)?
Answer: The value was 92.0%.

Question: What about the “Purity (%) of compound after 7 days” value (stored at 40° C.) of the same compound?
Answer: The value was 96.9%.

Question: For `O=C(O)CN1CCN(CC(=O)O)CCN(C(CCC(=O)NCCC(=O)N2Cc3ccccc3C#Cc3ccccc32)C(=O)O)CCN(CC(=O)O)CC1` (stereo not shown) [Example 3, DOTAGA-DBCO], which “long-term storage stability (in words)” value is on record?
Answer: Its value is “purity at the start of storage is maintained even after 6 months storage”.

Question: What about the “Purity (%) of compound at storage start” value (storage conditions: 5° C. (refrigerating)) of the same compound?
Answer: The value was 96.9%.

Question: And the “Purity (%) of compound after 1 month” value [2]?
Answer: The value was 97.0%.

Question: And the “Purity (%) of compound after 3 months” value [2]?
Answer: The value was 93.2%.

Question: What about the “Purity (%) of compound after 6 months” value [2] of the same compound?
Answer: The value was 96.8%.

Question: What about the “Purity (%) of compound after 7 days” value [2] of the same compound?
Answer: The value was 97.4%.

Question: With `O=C(O)CN1CCN(CC(=O)O)CCN(C(CCC(=O)NCCC(=O)N2Cc3ccccc3C#Cc3ccccc32)C(=O)O)CCN(CC(=O)O)CC1` (stereo not shown) [Example 4, DOTAGA-DBCO] as the compound, how does the “long-term storage stability (in words)” value read?
Answer: Its value is “purity at the start of storage is maintained even after 6 months storage”.

Question: And the “Purity (%) of compound at storage start” value (storage conditions: −20° C. (freezing))?
Answer: Its value is 96.9%.

Question: And the “Purity (%) of compound after 1 month” value (stored at −20° C. (freezing))?
Answer: Its value is 97.6%.

Question: What about the “Purity (%) of compound after 3 months” value (stored at −20° C. (freezing)) of the same compound?
Answer: Its value is 93.5%.

Question: What about the “Purity (%) of compound after 6 months” value (stored at −20° C. (freezing)) of the same compound?
Answer: The value was 95.5%.

Question: And the “Purity (%) of compound after 7 days” value (stored at −20° C. (freezing))?
Answer: Its value is 97.4%.

Question: Which “Purity (%) of compound at storage start” value [1] does the source give for `O=C(O)CN1CCN(CC(=O)O)CCN(C(CCC(=O)NCCC(=O)N2Cc3ccccc3C#Cc3ccccc32)C(=O)O)CCN(CC(=O)O)CC1` (stereo not shown) [Example 5, DOTAGA-DBCO] here?
Answer: Its value is 97.5%.

Question: And the “Purity (%) of compound after 1 month” value (stored at room temperature)?
Answer: The value was 96.0%.

Question: What about the “Purity (%) of compound after 7 days” value (stored at room temperature) of the same compound?
Answer: Its value is 97.2%.

From patent publication US20240166631A1, “COMPOUND, METHOD FOR PRODUCING AND METHOD FOR STORING COMPOUND, METHOD FOR PRODUCING TARGETING AGENT, AND COMPOSITION” (NIHON MEDI-PHYSICS CO., LTD, priority 2021, published 2024)
